In US11994512B2, “Single-cell genomic methods to generate ex vivo cell systems that recapitulate in vivo biology with improved fidelity” (Massachusetts Institute of Technology, priority 2018, dated 2024):

Legend:
Format in all cases: cell-based, C57BL/6 mice
[1] = system: LYZ secretion by Paneth cells in organoid culture; assay: Lysozyme functional secretion assay (EnzChek), basal and CCh-stimulated
From the text: In addition to the morphological, proteomic, and transcriptional characterization of PC phenotype in ENR+CD and ENR, Applicants sought to measure physiological function by assessing stimulant-induced secretion of antimicrobials. Applicants assessed the dynamics of LYZ accumulation in media supernatant of cultures following media wash, basally and after stimulation with carbachol (CCh), a cholinergic agonist known to induce PC secretion. […] The observed PC secretion in response to CCh is consistent with observations made in ex vivo crypts, though over appreciably longer time scales, likely due to the added diffusion barrier of the organoid structure and matrigel. Applicants next identified how LYZ secretion changes over the course of differentiation. Beginning with an ISC-enriched population, Applicants assayed for secreted LYZ in cell culture supernatants every two days for six days of ENR+CD culture, following a 24-hour stimulation with CCh or without (basal collection/non-stimulated).
Lysozyme functional secretion assay. Lysozyme secretion was measured using a Lysozyme Assay Kit (EnzChek; Thermo Fisher). Briefly, cells suspended in Matrigel in 24-well plates were washed (basal culture media 3X) and either supplemented with 500 μL of basal culture media or basal culture media plus 10 μM Carbachol (CCh, Sigma Aldrich) for 24 hours at 37° C. Following stimulation, culture plates were spun at high speed (>2000 g) for 5 min at RT to pellet cell debris and loose Matrigel. 25 μL of conditioned supernatant was removed from the top of each well and quantified per manufacturer's protocol.

[2] = system: organoid single cells (clusters ENR, ENR+CV, ENR+CD); assay: Seq-Well single-cell RNA-sequencing and transcriptional scoring of ENR+CV, ENR and ENR+CD organoids; conditions: p<2.2×10^−16
From the text: Applicants performed scRNA-seq using the Seq-Well platform on cells from ENR+CD and the precursor ENR+CV conditions to analyze alongside conventional ENR organoids. To ensure experimental robustness, Applicants assessed quality metrics for number of genes, unique molecular identifiers (UMIs), mitochondrial genes, and ribosomal genes by cluster, all of which fell within expectation (FIG. 11).
To assess sub-population structure and provide a more robust measure of composition beyond canonical marker genes, Applicants performed unsupervised KNN graph-based clustering on the captured cells (FIG. 4C,D and Table 1 for full gene lists), distinguishing four clusters in each treatment condition. Applicants then scored individual clusters according to the amount of the transcriptome within each cell dedicated to synthesizing the respective enriched proteins from the bulk proteome data.
To confirm and extend the findings of pathway-based modulation, Applicants scored clusters for enrichment or depletion of canonical growth factor-induced pathways.

[3] = system: in vitro PCs (CD24+ & LYZ+) in ENR+CD culture; NUPR1; assay: Trifluoperazine (NUPR1 inhibition) treatment of ENR+CD cultures, flow cytometry of viability and CD24/LYZ populations
From the text: Lastly, Applicants sought to use this physiologically-improved in vitro PC system (ENR+CD) to identify novel factors potentially supportive of PC survival or differentiation. […] Intriguingly, Nupr1 is a stress-response gene, known to promote cellular survival and senescence through mediation of autophagy, and has primarily been studied in the context of cancer. Autophagy and stress response have repeatedly been implicated through GWAS study in PCs in IBD, however Nupr1 has only ever been reported in a single IBD GWAS study, and its role in PC biology has not been formally investigated. With the model, Applicants sought to test the role of NUPR1 on in vitro PC survival, through the small molecule inhibition of NUPR1 with trifluoperazine (TFP).
Flow cytometry. Cell clusters were isolated from Matrigel as previously described and resuspended in TrypLE Express at 37° C. for 20 mins to dissociate into single cells. Dissociated cells were centrifuged at 300 g for 3 mins at 4° C. The pellet was resuspended in FACS buffer (1% FBS in PBS, Thermo Fisher Scientific) and strained into a 5-mL filter cap tube using a 40 μm filter. The cell suspension was transferred to a flow prep microcentrifuge tube and centrifuged at 300 rcf for 3 min. Cell pellets were resuspended in a Zombie violet dye (BioLegend 100X) in FACS buffer for viability staining followed with 1% PFA fixation for 20 minutes at RT. Pellets were permeabilized for 20 minutes at RT with staining buffer (0.5% Tween-20 in FACS buffer, Sigma), and co-stained with rabbit anti-human FITC-Lyz (100X) and rat anti-mouse APC-CD24 (100X) antibodies diluted in staining buffer for 45 min at RT. Flow cytometry was performed using a BD LSR II HTS (BD; Koch Institute Flow Cytometry Core at MIT). Initial settings and laser voltages were determined with unstained, single channel stains or secondary-only controls (data not shown). Flow cytometry data was analyzed using FlowJo v10.7 software.

[4] = system: intracellular proteome of ENR+CD and ENR organoids; assay: LC-MS/MS TMT proteomics of ENR+CD versus ENR organoids; conditions: for change: up = enriched in ENR+CD, down = enriched in ENR, FDR<0.05 and log fold change cut-off
From the text: Because PCs are highly secretory, protein-rich cells, Applicants sought to assess the total intracellular proteome between conditions through liquid chromatography mass spectrometry (LC-MS/MS)-based proteomics. Applicants quantified relative protein abundance across eight samples using isobaric mass tag labeling from four ENR and four ENR+CD samples (M1-1 through M2-2, first digit denotes biological donor, second digit denotes technical replicate) (FIG. 3A). Samples were processed and analyzed in a single 10-plex by LC-MS/MS (FIG. 9A).
To affirm the reproducibility of the associated proteins in the ENR+CD-enriched proteome, Applicants performed relative quantification within differentiation sets.
Mass spectrometry proteomics sample preparation, sequencing, and quantification. Organoid cell pellets were isolated from Matrigel with mechanical dissociation and washed (cold PBS 5X) to remove residual extracellular protein. Proteins were extracted from cell pellets with 8 M urea (Sigma), reduced with 5 mM DTT (Thermo Fisher Pierce) for 45 minutes, alkylated with 10 mM IAA (Sigma) for 45 minutes in the dark, and double digested with both Lysyl Endopeptidase “LysC” (Wako) and trypsin (Promega) overnight at RT. A small aliquot of cellular lysate was removed from each sample for protein quantification via the Pierce™ BCA Protein Assay Kit (Pierce). After proteolytic digestion, the samples were quenched using formic acid to a final concentration of 1.0% and subsequently desalted on 10 mg OASIS HLB solid phase columns (Waters).
The peptides were labeled with TMT-10 isobaric mass tag reagent according to manufacturer's instructions (ThermoFisher Scientific). The peptides were labeled at a 1:8 ratio of peptide to TMT reagent, followed by 1-hour incubation at RT with bench top shaking at 850 rpm. After incubation, a […] of labeled tryptic peptide was removed from each labeled condition, desalted with C18 stage tips, and analyzed via LC-MS/MS using a Thermo Fisher Q Exactive Plus Hybrid Mass Spectrometer (QE-Plus) coupled to a Thermo Fisher EASY-nLC 1000 liquid chromatograph to ensure isobaric label incorporation >95%. An additional 1.0 μg of labeled tryptic peptide was removed from each channel, mixed together, desalted on a C18 stage tip, and analyzed via LC-MS to ensure equal relative protein loads. During these quality control steps, the labeled peptides were stored, unquenched at −80° C.

[5] = doses above luM, in combination with ENR+CD for six days

## C[N+](C)(C)CCOC(N)=O [CCh, carbachol]
[1]; 10 μM, six day ENR+CD culture
  plateau of LYZ accumulation in supernatant: plateaued around six hours post-wash
[1]; 10 μM, six day ENR+CD culture, post-wash
  LYZ accumulation in media supernatant after stimulation: rapid accumulation of LYZ within two hours
[1]; 24-hour stimulation, days four and six of ENR+CD culture
  functional LYZ secretion (stimulated relative to basal) over differentiation: Notable increases in functional secretion

## Cc1c[nH]c(-c2cnc(NCCNc3ccc(C#N)cn3)nc2-c2ccc(Cl)cc2Cl)n1 [CHIR, CHIR99021]
[2]; all ENR+CD clusters vs ENR-4
  Wnt target gene enrichment, effect size: > 0.999

## C[C@H](NC(=O)Cc1cc(F)cc(F)c1)C(=O)N[C@H](C(=O)OC(C)(C)C)c1ccccc1 [DAPT]
[2]; ENR+CD-4 vs ENR-4
  Notch target gene depletion, effect size: −0.658

## CN1CCN(CCCN2c3ccccc3Sc3ccc(C(F)(F)F)cc32)CC1 [TFP, trifluoperazine]
[3]; added for two days following a six-day course of ENR+CD
  cellular viability: profound, but not total, decline in cellular viability
[3]; concurrent with 6-day ENR+CD differentiation (FIG. 7C)
  toxicity, preference to PCs (CD24+ & LYZ+) and PC-like populations: dose-dependent toxicity
[3]; [5]
  cell death during differentiation: near total cell death
  identity of surviving cells: primarily non-Paneth
[3]; two days following six-day ENR+CD
  selectivity of toxicity between cell populations: selectively more toxic to PC and PC-progenitor populations relative to non-PC populations
[3]; two-day treatment following 6-day ENR+CD differentiation (FIG. 7D)
  toxicity, preference to PCs (CD24+ & LYZ+) and PC-like populations: dose-dependent toxicity

## Q8VHB5
[4]; ENR+CD versus ENR organoids, sample pairs in aggregate (n=4, 2 technical replicates from two biological donors)
  Average logFC: −1.632
[4]; protein abundance ratio ENR+CD versus ENR organoids, sample pair M1-1, LC-MS/MS TMT proteomics
  M1-1 Log2 Median Normalized: −1.611
[4]; protein abundance ratio ENR+CD versus ENR organoids, sample pair M1-2, LC-MS/MS TMT proteomics
  M1-2 Log2 Median Normalized: −1.401
[4]; protein abundance ratio ENR+CD versus ENR organoids, sample pair M2-1, LC-MS/MS TMT proteomics
  M2-1 Log2 Median Normalized: −1.7625
[4]; protein abundance ratio ENR+CD versus ENR organoids, sample pair M2-2, LC-MS/MS TMT proteomics
  M2-2 Log2 Median Normalized: −1.754
[4]
  change: down

## P02802
[4]; protein abundance, ENR+CD versus ENR organoids, aggregate of the four sample pairs
  Average logFC: −1.725
[4]; protein abundance, ENR+CD versus ENR organoids, replicate M1-1, log2 ratio
  M1-1 Log2 Median Normalized: −2.19
[4]; protein abundance, ENR+CD versus ENR organoids, replicate M1-2, log2 ratio
  M1-2 Log2 Median Normalized: −2.322
[4]; protein abundance, ENR+CD versus ENR organoids, replicate M2-1, log2 ratio
  M2-1 Log2 Median Normalized: −1.3715
[4]; protein abundance, ENR+CD versus ENR organoids, replicate M2-2, log2 ratio
  M2-2 Log2 Median Normalized: −1.016
[4]
  change: down
